In assay [1] the target is T1, Protein cereblon/Tyrosine-protein kinase ABL1/Breakpoint cluster region protein (Homo sapiens, UniProt P00519+P11274+Q96SW2). In words: Protac activity at CRBN/BCR-ABL in human K562 cells assessed as increase in BCR-ABL degradation at 5 nM by Western blotting analysis. The format is cell-based.
For assay [2], the target named is T1, Protein cereblon/Tyrosine-protein kinase ABL1/Breakpoint cluster region protein. In words: Protac activity at CRBN/BCR-ABL in human K562 cells assessed as induction of BCR-ABL degradation at 100 nM pretreated with MLN4924 for 2 hrs followed by compound addition measured after 8 hrs by Western blotting analysis. The assay is classed as cell-based. To be noted: time 10.0 hrs.

Active and inactive are the calls of the source. The rule behind the calls is not given here.

T1 sequence (P00519 whole entry, looked up): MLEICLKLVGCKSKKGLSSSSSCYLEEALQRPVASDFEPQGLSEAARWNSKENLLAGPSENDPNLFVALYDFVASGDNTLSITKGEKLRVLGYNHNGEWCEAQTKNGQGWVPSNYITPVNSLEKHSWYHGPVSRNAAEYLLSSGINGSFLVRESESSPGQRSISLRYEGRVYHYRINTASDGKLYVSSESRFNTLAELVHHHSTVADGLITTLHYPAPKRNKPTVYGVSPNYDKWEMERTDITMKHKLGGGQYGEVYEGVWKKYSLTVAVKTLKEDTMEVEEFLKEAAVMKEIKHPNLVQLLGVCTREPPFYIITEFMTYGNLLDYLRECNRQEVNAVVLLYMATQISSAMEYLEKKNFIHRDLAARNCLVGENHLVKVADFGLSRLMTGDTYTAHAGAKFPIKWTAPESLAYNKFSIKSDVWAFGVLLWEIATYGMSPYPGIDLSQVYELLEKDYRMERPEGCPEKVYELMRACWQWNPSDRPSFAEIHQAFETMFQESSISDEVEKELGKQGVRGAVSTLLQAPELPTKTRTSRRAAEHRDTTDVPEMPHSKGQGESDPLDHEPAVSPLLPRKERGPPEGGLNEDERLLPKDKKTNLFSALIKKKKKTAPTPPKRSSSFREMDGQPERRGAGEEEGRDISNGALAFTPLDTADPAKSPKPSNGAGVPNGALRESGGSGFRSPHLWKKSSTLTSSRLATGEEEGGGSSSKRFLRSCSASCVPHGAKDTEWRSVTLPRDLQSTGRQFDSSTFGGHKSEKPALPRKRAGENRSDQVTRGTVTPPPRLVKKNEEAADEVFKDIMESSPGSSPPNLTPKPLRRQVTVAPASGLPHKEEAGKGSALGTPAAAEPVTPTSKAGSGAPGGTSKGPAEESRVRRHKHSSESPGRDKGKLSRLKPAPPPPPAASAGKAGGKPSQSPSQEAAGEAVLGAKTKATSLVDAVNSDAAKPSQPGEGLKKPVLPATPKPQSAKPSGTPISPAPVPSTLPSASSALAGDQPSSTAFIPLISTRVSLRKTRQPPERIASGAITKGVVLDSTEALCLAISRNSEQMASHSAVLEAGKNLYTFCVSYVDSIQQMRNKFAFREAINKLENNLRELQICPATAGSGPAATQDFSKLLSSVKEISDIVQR
T1 sequence (P11274 whole entry, looked up): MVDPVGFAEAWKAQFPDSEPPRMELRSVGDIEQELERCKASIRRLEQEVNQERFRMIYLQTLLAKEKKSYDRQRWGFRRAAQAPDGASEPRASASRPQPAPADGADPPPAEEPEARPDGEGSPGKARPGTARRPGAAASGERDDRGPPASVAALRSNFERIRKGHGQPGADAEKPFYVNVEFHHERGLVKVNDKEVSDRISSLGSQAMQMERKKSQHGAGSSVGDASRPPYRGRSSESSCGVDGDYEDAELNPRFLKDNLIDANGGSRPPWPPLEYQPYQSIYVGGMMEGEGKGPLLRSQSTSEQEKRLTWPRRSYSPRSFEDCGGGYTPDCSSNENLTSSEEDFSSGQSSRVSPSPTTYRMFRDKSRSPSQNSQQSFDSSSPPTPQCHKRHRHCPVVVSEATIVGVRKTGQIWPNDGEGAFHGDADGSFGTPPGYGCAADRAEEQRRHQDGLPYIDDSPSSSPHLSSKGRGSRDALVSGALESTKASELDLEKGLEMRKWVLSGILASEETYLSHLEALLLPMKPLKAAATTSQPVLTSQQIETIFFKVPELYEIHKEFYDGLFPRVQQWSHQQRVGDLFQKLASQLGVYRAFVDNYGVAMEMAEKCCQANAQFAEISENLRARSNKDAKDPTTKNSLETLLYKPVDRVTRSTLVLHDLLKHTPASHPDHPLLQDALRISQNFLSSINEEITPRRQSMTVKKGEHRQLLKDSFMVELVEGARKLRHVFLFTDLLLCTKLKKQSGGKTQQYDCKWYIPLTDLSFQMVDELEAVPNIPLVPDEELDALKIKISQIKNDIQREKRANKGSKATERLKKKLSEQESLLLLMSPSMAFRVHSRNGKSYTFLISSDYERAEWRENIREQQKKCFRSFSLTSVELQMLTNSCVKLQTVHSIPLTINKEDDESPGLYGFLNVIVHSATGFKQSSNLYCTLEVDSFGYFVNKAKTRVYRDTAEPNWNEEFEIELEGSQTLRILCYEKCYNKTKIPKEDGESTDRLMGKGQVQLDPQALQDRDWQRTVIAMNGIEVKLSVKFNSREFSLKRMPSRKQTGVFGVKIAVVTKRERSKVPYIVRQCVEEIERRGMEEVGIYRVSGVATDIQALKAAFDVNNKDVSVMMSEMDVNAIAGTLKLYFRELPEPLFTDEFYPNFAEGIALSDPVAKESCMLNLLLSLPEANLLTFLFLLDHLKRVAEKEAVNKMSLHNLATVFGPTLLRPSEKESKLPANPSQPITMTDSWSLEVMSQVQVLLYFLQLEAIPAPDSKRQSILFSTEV
T1 sequence (Q96SW2 whole entry, looked up): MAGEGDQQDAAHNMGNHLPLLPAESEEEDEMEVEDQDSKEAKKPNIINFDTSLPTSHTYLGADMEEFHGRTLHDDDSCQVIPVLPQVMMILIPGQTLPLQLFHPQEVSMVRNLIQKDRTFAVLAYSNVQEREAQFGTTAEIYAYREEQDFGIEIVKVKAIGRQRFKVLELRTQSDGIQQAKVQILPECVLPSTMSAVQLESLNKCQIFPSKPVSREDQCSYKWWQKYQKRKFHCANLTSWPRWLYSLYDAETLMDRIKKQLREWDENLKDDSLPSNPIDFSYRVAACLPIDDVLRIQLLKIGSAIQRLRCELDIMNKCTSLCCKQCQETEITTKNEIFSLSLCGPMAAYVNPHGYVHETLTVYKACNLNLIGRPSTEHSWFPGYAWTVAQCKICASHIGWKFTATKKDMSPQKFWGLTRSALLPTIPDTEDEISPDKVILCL

For `O=C1CCC(N2Cc3c(SCCCCCCN4CCN(C5CCN(c6ncc(C(=O)Nc7ccc(OC(F)(F)Cl)cc7)cc6-c6ccn[nH]6)CC5)CC4)cccc3C2=O)C(=O)N1` (configuration not stated), the Activity in assay [1] stood at 81.8%. Also, the result in assay [2] was inactive.

The record behind these values is ChEMBL document CHEMBL5247625, “Discovery and characterization of novel potent BCR-ABL degraders by conjugating allosteric inhibitor” (Eur J Med Chem, 2022).
